Patent publication US20250041463A1, “FLUORINE-18 LABELED COMPOSITIONS AND THEIR USE IN IMAGING OF BIOLOGICAL TISSUE” (CORNELL UNIVERSITY, priority 2018, published 2025)

Tested on: Nestin tv-a derived DIPG
Test: Cell viability reference control (dasatinib)
Type: cell-based
Conditions: four parameter logistic standard curve regression, R^2=0.972

SMILES: Cc1nc(Nc2ncc(C(=O)Nc3c(C)cccc3Cl)s2)cc(N2CCN(CCO)CC2)n1 [dasatinib]
- IC50: 19 ± 20 nM
